According to paper PMC5218480 (PLoS ONE, 2017):

Tested on: MV-4-11 cells
Test: Gene expression microarray analysis (Affymetrix PrimeView) and GSEA
Format: cell-based, human
Design: RFU PODN (11730768_x_at) / Fold change /veh PODN (11730768_x_at) / RFU LINC00158 (11744669_a_at) / Fold change /veh LINC00158 (11744669_a_at) / RFU DUSP10 (11751237_a_at) / Fold change /veh DUSP10 (11751237_a_at) / RFU ID3 (11757404_x_at) / Fold change /veh ID3 (11757404_x_at) / RFU PLEKHG5 (11737974_s_at) / Fold change /veh PLEKHG5 (11737974_s_at) / RFU LRRC4B (11730491_at) / Fold change /veh LRRC4B (11730491_at) / RFU GIMAP4 (11747438_a_at) / Fold change /veh GIMAP4 (11747438_a_at) / RFU KRT8 (11758183_x_at) / Fold change /veh KRT8 (11758183_x_at) / RFU CNN1 (11734310_a_at) / Fold change /veh CNN1 (11734310_a_at) / RFU VPS37D (11726825_at) / Fold change /veh VPS37D (11726825_at) / RFU C10orf10 (11716522_x_at) / Fold change /veh C10orf10 (11716522_x_at) / RFU KIR2DL2 /// KIR2DL4 /// KIR2DL5A /// KIR2DL5B /// KIR2DS1 /// KIR2DS2 /// KIR2DS3 /// KIR2DS4 /// KIR3DL3 /// KIR3DL3 /// KIR3DS1 (11738374_at) / Fold change /veh KIR2DL2 /// KIR2DL4 /// KIR2DL5A /// KIR2DL5B /// KIR2DS1 /// KIR2DS2 /// KIR2DS3 /// KIR2DS4 /// KIR3DL3 /// KIR3DL3 /// KIR3DS1 (11738374_at) / RFU C1QL1 (11718748_at) / Fold change /veh C1QL1 (11718748_at) / RFU TMPRSS4 (11747572_a_at) / Fold change /veh TMPRSS4 (11747572_a_at) / RFU HAMP (11756126_x_at) / Fold change /veh HAMP (11756126_x_at) / RFU RNFT2 (11725882_a_at) / Fold change /veh RNFT2 (11725882_a_at) / RFU NR4A2 (11747474_a_at) / Fold change /veh NR4A2 (11747474_a_at) / RFU ABCC12 (11746883_a_at) / Fold change /veh ABCC12 (11746883_a_at) / RFU TMEM136 (11760407_x_at) / Fold change /veh TMEM136 (11760407_x_at) / RFU CLDN22 /// WWC2 (11732394_at) / Fold change /veh CLDN22 /// WWC2 (11732394_at) / RFU HLA-DPB1 (11760878_x_at) / Fold change /veh HLA-DPB1 (11760878_x_at) / RFU SPINT1 (11716480_a_at) / Fold change /veh SPINT1 (11716480_a_at) / RFU GAP43 (11754022_s_at) / Fold change /veh GAP43 (11754022_s_at) / RFU A4GNT (11735810_at) / Fold change /veh A4GNT (11735810_at) / RFU PRB3 (11715151_x_at) / Fold change /veh PRB3 (11715151_x_at) / RFU TUBB4B (11761932_at) / Fold change /veh TUBB4B (11761932_at) / RFU CAPN14 (11732068_a_at) / Fold change /veh CAPN14 (11732068_a_at) / RFU TMCC2 (11721928_a_at) / Fold change /veh TMCC2 (11721928_a_at) / RFU IRGQ (11745062_a_at) / Fold change /veh IRGQ (11745062_a_at) / RFU FAM174B (11720279_a_at) / Fold change /veh FAM174B (11720279_a_at) / RFU TMPRSS4 (11748680_a_at) / Fold change /veh TMPRSS4 (11748680_a_at) / RFU FAM212B (11763350_a_at) / Fold change /veh FAM212B (11763350_a_at) / RFU PLEKHG5 (11743358_a_at) / Fold change /veh PLEKHG5 (11743358_a_at) / RFU ZSCAN30 (11745921_a_at) / Fold change /veh ZSCAN30 (11745921_a_at) / RFU CMKLR1 (11741424_a_at) / Fold change /veh CMKLR1 (11741424_a_at) / RFU LOC101060620 /// MAPK8IP1 (11723275_at) / Fold change /veh LOC101060620 /// MAPK8IP1 (11723275_at) / RFU SPTSSB (11747773_x_at) / Fold change /veh SPTSSB (11747773_x_at) / RFU PRSS12 (11739890_at) / Fold change /veh PRSS12 (11739890_at) / RFU BIN1 (11741810_x_at) / Fold change /veh BIN1 (11741810_x_at) / RFU WNT11 (11732464_a_at) / Fold change /veh WNT11 (11732464_a_at) / RFU C10orf10 (11716521_a_at) / Fold change /veh C10orf10 (11716521_a_at) / RFU C5orf56 (11738089_at) / Fold change /veh C5orf56 (11738089_at) / RFU CYB561 (11721691_x_at) / Fold change /veh CYB561 (11721691_x_at) / RFU ANKRD19P (11752326_a_at) / Fold change /veh ANKRD19P (11752326_a_at) / RFU OR2T12 /// OR2T33 /// OR2T8 (11738714_s_at) / Fold change /veh OR2T12 /// OR2T33 /// OR2T8 (11738714_s_at) / RFU VCAN (11748164_a_at) / Fold change /veh VCAN (11748164_a_at) / RFU JSRP1 (11732532_at) / Fold change /veh JSRP1 (11732532_at) / RFU KRTAP10-11 (11738290_x_at) / Fold change /veh KRTAP10-11 (11738290_x_at) / RFU MYO3A (11730013_a_at) / Fold change /veh MYO3A (11730013_a_at) / RFU EBF3 (11725865_a_at) / Fold change /veh EBF3 (11725865_a_at) / RFU CAMK2N1 (11719241_x_at) / Fold change /veh CAMK2N1 (11719241_x_at) / RFU C5orf56 (11738088_a_at) / Fold change /veh C5orf56 (11738088_a_at) / RFU OLFML3 (11715873_a_at) / Fold change /veh OLFML3 (11715873_a_at) / RFU LOC100653217 /// NTM (11731650_a_at) / Fold change /veh LOC100653217 /// NTM (11731650_a_at) / RFU MAPK11 (11762145_a_at) / Fold change /veh MAPK11 (11762145_a_at) / RFU FIZ1 (11724087_x_at) / Fold change /veh FIZ1 (11724087_x_at) / RFU OASL (11726364_x_at) / Fold change /veh OASL (11726364_x_at) / RFU SOX15 (11748057_x_at) / Fold change /veh SOX15 (11748057_x_at) / RFU CD79A (11719716_a_at) / Fold change /veh CD79A (11719716_a_at) / RFU HIST1H1D (11736915_at) / Fold change /veh HIST1H1D (11736915_at) / RFU CASKIN2 (11723855_a_at) / Fold change /veh CASKIN2 (11723855_a_at) / RFU LOC730098 (11760151_x_at) / Fold change /veh LOC730098 (11760151_x_at) / RFU OR4N2 (11742367_at) / Fold change /veh OR4N2 (11742367_at) / RFU PRRT2 (11749266_a_at) / Fold change /veh PRRT2 (11749266_a_at) / RFU SNX32 (11753110_a_at) / Fold change /veh SNX32 (11753110_a_at) / RFU CDHR5 (11726645_a_at) / Fold change /veh CDHR5 (11726645_a_at) / RFU RCAN1 (11760418_a_at) / Fold change /veh RCAN1 (11760418_a_at) / RFU FAM167A (11723789_a_at) / Fold change /veh FAM167A (11723789_a_at) / RFU FAM26E (11764081_at) / Fold change /veh FAM26E (11764081_at) / RFU ISYNA1 (11749810_s_at) / Fold change /veh ISYNA1 (11749810_s_at) / RFU ACY1 (11761880_at) / Fold change /veh ACY1 (11761880_at) / RFU 11764098_at / Fold change /veh 11764098_at / RFU SAMD14 (11745864_x_at) / Fold change /veh SAMD14 (11745864_x_at) / RFU NPB (11741838_a_at) / Fold change /veh NPB (11741838_a_at) / RFU TMPRSS6 (11731388_a_at) / Fold change /veh TMPRSS6 (11731388_a_at) / RFU KRTAP10-2 (11738614_at) / Fold change /veh KRTAP10-2 (11738614_at) / RFU ARHGAP8 /// PRR5-ARHGAP8 (11727945_x_at) / Fold change /veh ARHGAP8 /// PRR5-ARHGAP8 (11727945_x_at) / RFU KRTAP5-7 /// NADSYN1 (11734609_at) / Fold change /veh KRTAP5-7 /// NADSYN1 (11734609_at) / RFU RASL12 (11751679_a_at) / Fold change /veh RASL12 (11751679_a_at) / RFU CDKN2B (11736163_a_at) / Fold change /veh CDKN2B (11736163_a_at) / RFU PRF1 (11729649_at) / Fold change /veh PRF1 (11729649_at) / RFU, ZNF638 /// ZNF638-IT1 / Fold change vs veh, ZNF638 /// ZNF638-IT1 / RFU, PANK3 / Fold change vs veh, PANK3 / RFU, SH3YL1 / Fold change vs veh, SH3YL1 / RFU, ZEB2 / Fold change vs veh, ZEB2 / RFU, NRIP1 / Fold change vs veh, NRIP1 / RFU, PTTG1IP / Fold change vs veh, PTTG1IP / RFU, CAPN2 / Fold change vs veh, CAPN2 / RFU, MED14 / Fold change vs veh, MED14 / RFU, SNORA58 / Fold change vs veh, SNORA58 / RFU, C1orf63 / Fold change vs veh, C1orf63 / RFU, LRRFIP1 / Fold change vs veh, LRRFIP1 / RFU, NDUFAF7 / Fold change vs veh, NDUFAF7 / RFU, SLC12A2 / Fold change vs veh, SLC12A2 / RFU, IBTK / Fold change vs veh, IBTK / RFU, ESF1 / Fold change vs veh, ESF1 / Fold change vs veh, TMEM50B / RFU, TAOK1 / Fold change vs veh, TAOK1 / RFU, ACBD3 / Fold change vs veh, ACBD3 / RFU, TMA16 / Fold change vs veh, TMA16 / RFU, RWDD3 / Fold change vs veh, RWDD3 / RFU, BCAT1 / Fold change vs veh, BCAT1 / RFU, EDEM3 / Fold change vs veh, EDEM3 / RFU, TMEM33 / Fold change vs veh, TMEM33 / RFU, WDR75 / Fold change vs veh, WDR75 / RFU, AHCTF1 / Fold change vs veh, AHCTF1 / RFU, TFRC / Fold change vs veh, TFRC / RFU, ZDHHC17 / Fold change vs veh, ZDHHC17 / RFU, NOM1 / Fold change vs veh, NOM1 / RFU, ARL8B / Fold change vs veh, ARL8B / RFU, ZBTB11 / Fold change vs veh, ZBTB11 / RFU, TAMM41 / Fold change vs veh, TAMM41 / RFU, KIAA1704 /// LOC100996395 / Fold change vs veh, KIAA1704 /// LOC100996395 / RFU, ING1 / Fold change vs veh, ING1 / RFU, TRMT61B / Fold change vs veh, TRMT61B / RFU, FUBP3 / Fold change vs veh, FUBP3 / RFU, TP53 / Fold change vs veh, TP53 / RFU, TNKS2 / Fold change vs veh, TNKS2 / RFU, ZFP14 / Fold change vs veh, ZFP14 / RFU, ACTR2 / Fold change vs veh, ACTR2 / RFU, PPP3R1 / Fold change vs veh, PPP3R1 / RFU, PIK3R1 / Fold change vs veh, PIK3R1 / RFU, HNRNPA1 / Fold change vs veh, HNRNPA1 / RFU, RNF170 / Fold change vs veh, RNF170 / RFU, ZNF28 / Fold change vs veh, ZNF28 / RFU, RNGTT / Fold change vs veh, RNGTT / RFU, OGT / Fold change vs veh, OGT / RFU, BRD1 / Fold change vs veh, BRD1 / RFU, MARS / Fold change vs veh, MARS / RFU, ZNF655 / Fold change vs veh, ZNF655 / RFU, FAHD1 / Fold change vs veh, FAHD1 / RFU, BDP1 / Fold change vs veh, BDP1 / RFU, LRRCC1 / Fold change vs veh, LRRCC1 / RFU, ARID1A / Fold change vs veh, ARID1A / RFU, ZNF146 / Fold change vs veh, ZNF146 / RFU, ZNF330 / Fold change vs veh, ZNF330 / RFU, GPN3 / Fold change vs veh, GPN3 / RFU, C9orf123 / Fold change vs veh, C9orf123 / RFU, N4BP2L2 / Fold change vs veh, N4BP2L2 / RFU, ARFIP1 / Fold change vs veh, ARFIP1 / RFU, FAM179B / Fold change vs veh, FAM179B / RFU, BCL10 / Fold change vs veh, BCL10 / RFU, UHRF1BP1L / Fold change vs veh, UHRF1BP1L / RFU, BET1 / Fold change vs veh, BET1 / RFU, CNOT2 / Fold change vs veh, CNOT2 / RFU, ZNF268 / Fold change vs veh, ZNF268 / Fold change vs veh, ZNF507 / RFU, DGCR2 / Fold change vs veh, DGCR2 / RFU, WDSUB1 / Fold change vs veh, WDSUB1 / Fold change vs veh, HSP90B1 /// MIR3652 / RFU, ADSS / Fold change vs veh, ADSS / RFU, GK / Fold change vs veh, GK / RFU, ZNF148 / Fold change vs veh, ZNF148 / RFU, TAF9 / Fold change vs veh, TAF9 / RFU, SLC1A5 / Fold change vs veh, SLC1A5 / RFU, SLMO2 / Fold change vs veh, SLMO2 / RFU, ABCC4 / Fold change vs veh, ABCC4 / RFU, LOC101060439 /// RAP1B / Fold change vs veh, LOC101060439 /// RAP1B / RFU, RFX7 / Fold change vs veh, RFX7 / RFU, GTPBP10 / Fold change vs veh, GTPBP10 / RFU, CNEP1R1 / Fold change vs veh, CNEP1R1 / RFU, BIVM-ERCC5 /// ERCC5 / Fold change vs veh, BIVM-ERCC5 /// ERCC5 / RFU, ILF3 / Fold change vs veh, ILF3 / RFU 11762660_at / Fold change /veh 11762660_at / RFU VCAN (11757783_s_at) / Fold change /veh VCAN (11757783_s_at) / RFU DDX43 (11728927_at) / Fold change /veh DDX43 (11728927_at) / RFU KRT8 (11758188_x_at) / Fold change /veh KRT8 (11758188_x_at) / RFU NKD1 (11759106_at) / Fold change /veh NKD1 (11759106_at) / RFU SRD5A1 (11742802_a_at) / Fold change /veh SRD5A1 (11742802_a_at) / RFU TPSAB1 /// TPSB2 (11721975_s_at) / Fold change /veh TPSAB1 /// TPSB2 (11721975_s_at) / RFU GSTM3 (11746129_a_at) / Fold change /veh GSTM3 (11746129_a_at) / RFU IL23R (11737362_x_at) / Fold change /veh IL23R (11737362_x_at) / RFU TMEM51 (11727254_a_at) / Fold change /veh TMEM51 (11727254_a_at) / RFU PIWIL2 (11732686_x_at) / Fold change /veh PIWIL2 (11732686_x_at) / RFU ORM1 (11744905_x_at) / Fold change /veh ORM1 (11744905_x_at) / RFU CCDC152 (11743942_at) / Fold change /veh CCDC152 (11743942_at) / RFU ECM1 (11717891_a_at) / Fold change /veh ECM1 (11717891_a_at) / RFU IL23R (11748794_a_at) / Fold change /veh IL23R (11748794_a_at) / RFU TNFAIP8L3 (11732012_x_at) / Fold change /veh TNFAIP8L3 (11732012_x_at) / RFU MBOAT4 (11741988_at) / Fold change /veh MBOAT4 (11741988_at) / RFU 11764193_at / Fold change /veh 11764193_at / RFU TMEM53 (11763286_at) / Fold change /veh TMEM53 (11763286_at) / RFU MAGEB2 (11727129_at) / Fold change /veh MAGEB2 (11727129_at) / RFU TMEM200A (11744735_a_at) / Fold change /veh TMEM200A (11744735_a_at) / RFU CCDC152 (11751479_a_at) / Fold change /veh CCDC152 (11751479_a_at) / RFU FAM211A (11726209_a_at) / Fold change /veh FAM211A (11726209_a_at) / RFU RGS16 (11746705_a_at) / Fold change /veh RGS16 (11746705_a_at) / RFU VCAN (11755009_s_at) / Fold change /veh VCAN (11755009_s_at) / RFU RHOB (11743442_s_at) / Fold change /veh RHOB (11743442_s_at) / RFU RGS16 (11720943_a_at) / Fold change /veh RGS16 (11720943_a_at) / RFU RGS16 (11720944_at) / Fold change /veh RGS16 (11720944_at) / RFU, VPS4B / Fold change vs veh, VPS4B / RFU, CREB1 / Fold change vs veh, CREB1 / RFU, DNAJC13 / Fold change vs veh, DNAJC13 / RFU, GNAQ / Fold change vs veh, GNAQ / RFU, CDK5R1 / Fold change vs veh, CDK5R1 / RFU, ZRANB3 / Fold change vs veh, ZRANB3 / RFU, CUL4A / Fold change vs veh, CUL4A / RFU, CCNY / Fold change vs veh, CCNY / RFU, UFL1 / Fold change vs veh, UFL1 / RFU, COG3 / Fold change vs veh, COG3 / RFU, DIAPH2 / Fold change vs veh, DIAPH2 / RFU, SKA2 / Fold change vs veh, SKA2 / RFU, AFF3 / Fold change vs veh, AFF3 / RFU, LMF1 / Fold change vs veh, LMF1 / RFU, IPO11 / Fold change vs veh, IPO11 / RFU, DFFB / Fold change vs veh, DFFB / RFU, FOXP1 / Fold change vs veh, FOXP1 / RFU, CARD8 / Fold change vs veh, CARD8 / RFU, STRN3 / Fold change vs veh, STRN3 / RFU, ADK / Fold change vs veh, ADK / RFU, RASSF2 / Fold change vs veh, RASSF2 / RFU, WIPF1 / Fold change vs veh, WIPF1 / RFU, LARP1B / Fold change vs veh, LARP1B / RFU, RASA1 / Fold change vs veh, RASA1 / RFU, RB1 / Fold change vs veh, RB1 / RFU, PPFIA1 / Fold change vs veh, PPFIA1 / RFU, MAT2A / Fold change vs veh, MAT2A / RFU, CCT5 / Fold change vs veh, CCT5 / RFU, WDR92 / Fold change vs veh, WDR92 / RFU, CUX1 / Fold change vs veh, CUX1 / RFU, TTC7A / Fold change vs veh, TTC7A / RFU, TMEM135 / Fold change vs veh, TMEM135 / RFU, DEPTOR / Fold change vs veh, DEPTOR / RFU, CPM / Fold change vs veh, CPM / RFU, DNAJB6 / Fold change vs veh, DNAJB6 / RFU, CACNA2D3 / Fold change vs veh, CACNA2D3 / RFU, DTX4 / Fold change vs veh, DTX4 / RFU, TFCP2 / Fold change vs veh, TFCP2 / RFU, GMCL1 /// GMCL1P1 / Fold change vs veh, GMCL1 /// GMCL1P1 / RFU, AEBP2 / Fold change vs veh, AEBP2 / RFU, SNHG1 /// SNORD22 /// SNORD25 /// SNORD26 /// SNORD27 /// SNORD28 /// SNORD29 /// SNORD31 / Fold change vs veh, SNHG1 /// SNORD22 /// SNORD25 /// SNORD26 /// SNORD27 /// SNORD28 /// SNORD29 /// SNORD31 / Fold change (Aza/veh), C12orf56 (ProbeSet 11735607_a_at) / Fold change (ACY-1035/veh), C12orf56 (ProbeSet 11735607_a_at) / Fold change (Aza/veh), FGFR1OP (ProbeSet 11751329_s_at) / Fold change (ACY-1035/veh), FGFR1OP (ProbeSet 11751329_s_at) / Fold change (Aza/veh), VPS36 (ProbeSet 11739960_a_at) / Fold change (ACY-1035/veh), VPS36 (ProbeSet 11739960_a_at) / RFU SYPL1 (11715823_x_at) / Fold change /veh SYPL1 (11715823_x_at) / RFU IGFBP7 (11715501_s_at) / Fold change /veh IGFBP7 (11715501_s_at) / RFU REEP3 (11722064_at) / Fold change /veh REEP3 (11722064_at) / RFU IGLL1 (11728026_x_at) / Fold change /veh IGLL1 (11728026_x_at): dose or concentration left out as unconfirmed
Conditions: ProbeSet 11717308_a_at; LIST B

## Nc1ccc(-c2cccs2)cc1NC(=O)c1ccc2c(c1)cc(C1CC1)n2CCN1CCOCC1 [ACY-1035]
  Fold change vs veh, WDR75: 0.92
